Measurements: patent US12660819B2, “Herbicidal derivatives” (SYNGENTA CROP PROTECTION AG, priority 2020, dated 2026)

Tests used:
Format in all cases: in vivo
[1] = tested on: Amaranthus retoflexus (AMARE); test: Post-emergence Test (glasshouse, percentage damage to the plant); conditions: post-emergence spray, 1000 g/ha unless otherwise stated, evaluated after 13 days
How it was run: (§1)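 Seeds sown in standard soil in a glasshouse (24/16 °C day/night, 14 h light, 65% humidity), then sprayed with an aqueous solution of the compound formulated in acetone/water 50:50 with 0.5% Tween 20 at 1000 g/ha unless otherwise stated. Percentage damage was scored after 13 days on a five-point scale (5=81-100%; 1=0-20%).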

[2] = tested on: Echinochloa crus-galli (ECHCG); test: as above; conditions: post-emergence spray, 1000 g/ha unless otherwise stated, evaluated after 13 days
How it was run: as §1

[3] = tested on: Ipomoea hederacea (IPOHE); test: as above; conditions: post-emergence spray, 1000 g/ha unless otherwise stated, evaluated after 13 days
How it was run: (§2)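 Scored 13 days after spraying as percentage plant damage in five bands (5=81–100%, 4=61–80%, 3=41–60%, 2=21–40%, 1=0–20%). Spray at 1000 g/ha unless stated, in acetone/water 50:50 plus 0.5% Tween 20, onto sown glasshouse pots (24/16 °C, 14 h light, 65% humidity).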

[4] = tested on: Lolium perenne (LOLPE); test: as above; conditions: post-emergence spray, 1000 g/ha unless otherwise stated, evaluated after 13 days
How it was run: as §1

[5] = tested on: Setaria faberi (SETFA); test: as above; conditions: post-emergence spray, 1000 g/ha unless otherwise stated, evaluated after 13 days
How it was run: as §2

[6] = tested on: Solanum nigrum (SOLNI); test: as above; conditions: post-emergence spray, 1000 g/ha unless otherwise stated, evaluated after 13 days
How it was run: as §1

[7] = tested on: Amaranthus retoflexus (AMARE); test: Pre-emergence Test (glasshouse, percentage damage to the plant); conditions: 1000 g/ha unless otherwise stated, five-point scale
[8] = tested on: Solanum nigrum (SOLNI); test: as above; conditions: 1000 g/ha unless otherwise stated, five-point scale
[9] = tested on: Setaria faberi (SETFA); test: as above; conditions: 1000 g/ha unless otherwise stated, five-point scale
[10] = tested on: Lolium perenne (LOLPE); test: as above; conditions: 1000 g/ha unless otherwise stated, five-point scale
[11] = tested on: Echinochloa crus-galli (ECHCG); test: as above; conditions: 1000 g/ha unless otherwise stated, five-point scale
[12] = tested on: Ipomoea hederacea (IPOHE); test: as above; conditions: 1000 g/ha unless otherwise stated, five-point scale

| Compound | Post-emergence Test AMARE, percentage damage to the plant (five-point scale) [1] | Post-emergence Test ECHCG, percentage damage to the plant (five-point scale) [2] | Post-emergence Test IPOHE, percentage damage to the plant (five-point scale) [3] | Post-emergence Test LOLPE, percentage damage to the plant (five-point scale) [4] | Post-emergence Test SETFA, percentage damage to the plant (five-point scale) [5] | Post-emergence Test SOLNI, percentage damage to the plant (five-point scale) [6] | percentage damage to the plant, AMARE [7] | percentage damage to the plant, SOLNI [8] | percentage damage to the plant, SETFA [9] | percentage damage to the plant, LOLPE [10] | percentage damage to the plant, ECHCG [11] | percentage damage to the plant, IPOHE [12] |
| --- | --- | --- | --- | --- | --- | --- | --- | --- | --- | --- | --- | --- |
| CCn1c(C)c(-c2csc(Cl)c2)c(=O)c(C(=O)O)c1-c1ccc(Cl)c(Cl)c1 [Compound 37, 5-(5-chloro-3-thienyl)-2-(3,4-dichlorophenyl)-1-ethyl-6-methyl-4-oxo-pyridine-3-carboxylic acid] | 1 (1=0-20%) | 1 (1=0-20%) | 3 (3=41-60%) | 1 (1=0-20%) | 1 (1=0-20%) | 4 (4=61-80%) | 1 (1=0-20%) | 1 (1=0-20%) | 1 (1=0-20%) | 1 (1=0-20%) | 1 (1=0-20%) | 1 (1=0-20%) |
| CCn1c(C)c(-c2ncco2)c(=O)c(C(=O)OC)c1-c1ccc(Cl)c(Cl)c1 [Compound 38, methyl 2-(3,4-dichlorophenyl)-1-ethyl-6-methyl-5-oxazol-2-yl-4-oxo-pyridine-3-carboxylate] | 1 (1=0-20%) | 1 (1=0-20%) | 1 (1=0-20%) | 1 (1=0-20%) | 1 (1=0-20%) | 1 (1=0-20%) | 1 (1=0-20%) | 1 (1=0-20%) | 1 (1=0-20%) | 1 (1=0-20%) | 1 (1=0-20%) | 1 (1=0-20%) |
| CCn1c(C)c(-c2cncn2C)c(=O)c(C(=O)OC)c1-c1ccc(Cl)c(Cl)c1 [Compound 39, methyl 2-(3,4-dichlorophenyl)-1-ethyl-6-methyl-5-(3-methylimidazol-4-yl)-4-oxo-pyridine-3-carboxylate] | 1 (1=0-20%) | 1 (1=0-20%) | 1 (1=0-20%) | 1 (1=0-20%) | 1 (1=0-20%) | 1 (1=0-20%) | 1 (1=0-20%) | 1 (1=0-20%) | 1 (1=0-20%) | 1 (1=0-20%) | 1 (1=0-20%) | 1 (1=0-20%) |
| CCn1c(C)c(-c2cncn2C)c(=O)c(C(=O)O)c1-c1ccc(Cl)c(Cl)c1 [Compound 40, 2-(3,4-dichlorophenyl)-1-ethyl-6-methyl-5-(3-methylimidazol-4-yl)-4-oxo-pyridine-3-carboxylic acid] | 1 (1=0-20%) | 1 (1=0-20%) | 1 (1=0-20%) | 1 (1=0-20%) | 1 (1=0-20%) | 2 (2=21-40%) | 1 (1=0-20%) | 1 (1=0-20%) | 1 (1=0-20%) | 1 (1=0-20%) | 1 (1=0-20%) | 1 (1=0-20%) |
| CCn1c(C)c(-c2ccc(OC)nc2)c(=O)c(C(=O)O)c1-c1ccc(Cl)c(Cl)c1 [Compound 126, 2-(3,4-dichlorophenyl)-1-ethyl-5-(6-methoxy-3-pyridyl)-6-methyl-4-oxo-pyridine-3-carboxylic acid] | 5 (5=81-100%) | 4 (4=61-80%) | 4 (4=61-80%) | 2 (2=21-40%) | 5 (5=81-100%) | 5 (5=81-100%) | 5 (5=81-100%) | 4 (4=61-80%) | 4 (4=61-80%) | 0 | 2 (2=21-40%) | 3 (3=41-60%) |
